Source: patent EP0162494A1, “Process for the preparation of a 3-hydroxy-2,3-dihydrobenzisothiazole 1,1-dioxide and the use of this compound as a biocide and for preparing an ortho-sulphobenzimide” (AKZO N.V., priority 1984, dated 1985)
In brackets after ≈: the same amount, converted by molar mass.

Columns and labels:
Pseudomonas aeruginosa = assay: MIC, modified DGHM dilution method; type: cell-based; conditions: A.C. = active compound
Escherichia coli = assay: MIC, modified DGHM dilution method; type: cell-based; conditions: A.C. = active compound
Proteus mirabilis = assay: MIC, modified DGHM dilution method; type: cell-based; conditions: A.C. = active compound
Staphylococcus aureus = assay: MIC, modified DGHM dilution method; type: cell-based; conditions: A.C. = active compound
Streptococcus faecalis = assay: MIC, modified DGHM dilution method; type: cell-based; conditions: Enterococcus faecalis, A.C. = active compound
Candida albicans = assay: MIC, modified DGHM dilution method; type: cell-based; conditions: A.C. = active compound
Saccharomyces cerevisiae = assay: MIC, modified DGHM dilution method; type: cell-based; conditions: A.C. = active compound
Chaetomium globosum = assay: MIC, modified DGHM dilution method; type: cell-based; conditions: A.C. = active compound
Paecillomyces varioti = assay: MIC, modified DGHM dilution method; type: cell-based; conditions: A.C. = active compound
Trichoderma viride = assay: MIC, modified DGHM dilution method; type: cell-based; conditions: A.C. = active compound
Aspergillus niger = assay: MIC, modified DGHM dilution method; type: cell-based; conditions: A.C. = active compound
Pellicularia sasaki = assay: MIC, modified DGHM dilution method; type: cell-based; conditions: A.C. = active compound
Pyricularia oryzae = assay: microbe, parasite or virus in culture; type: cell-based; conditions: read-out: MIC-values
fungi = assay: MIC, DGHM dilution test method, by type of microorganism; type: cell-based; conditions: read-out: minimum growth inhibiting concentration (MIC value)
Description: (§1) The minimum growth inhibiting concentration (MIC value) of 3-hydroxy-2,3-dihydrobenzisothiazole-1,1-dioxide for the different types of microorganisms was determined in conformity with the dilution test method of the "Deutsche Gesellschaft fUr Hygiene und Mikrobiologie" (DGHM) and are: […]

gram negative bacteria = assay: as above; type: cell-based; conditions: read-out: minimum growth inhibiting concentration (MIC value)
Description: as §1

gram positive bacteria = assay: as above; type: cell-based; conditions: read-out: minimum growth inhibiting concentration (MIC value)
Description: as §1

yeasts = assay: as above; type: cell-based; conditions: read-out: minimum growth inhibiting concentration (MIC value)
Description: as §1

[1] = Acute oral toxicity in rats; type: in vivo; conditions: for LD50 at 24 h / LD50 at 48 h / LD50 at 336 h: rat, in vivo, po; for LD50 at 24 h: after 24 hours; for LD50 at 48 h: after 48 hours; for LD50 at 336 h: after 14 days
[2] = system: sulfphate reducing bacteria; assay: Bacteriostatic activity towards sulphate reducing bacteria; type: cell-based; conditions: result in words
certain bacteria = assay: Synergy with quaternary ammonium compounds; type: cell-based; conditions: in combination with some quaternary ammonium compounds such as dimethylbenzyl coco-ammonium chloride or didecyldimethyl ammonium chloride

| Compound | MIC (Pseudomonas aeruginosa) | MIC (Escherichia coli) | MIC (Proteus mirabilis) | MIC (Staphylococcus aureus) | MIC (Streptococcus faecalis) | MIC (Candida albicans) | MIC (Saccharomyces cerevisiae) | MIC (Chaetomium globosum) | MIC (Paecillomyces varioti) | MIC (Trichoderma viride) | MIC (Aspergillus niger) | MIC (Pellicularia sasaki) | MIC (Pyricularia oryzae) | also measured |
| --- | --- | --- | --- | --- | --- | --- | --- | --- | --- | --- | --- | --- | --- | --- |
| O=S1(=O)NC(O)c2ccccc21 (stereo not drawn) [3-hydroxy-2,3-dihydrobenzisothiazole-1,1-dioxide] | 1200 µg/mL (≈ 6.48 mM) | 600 to 1200 µg/mL (≈ 3.24 to 6.48 mM) | 600 to 1200 µg/mL (≈ 3.24 to 6.48 mM) | 600 to 1200 µg/mL (≈ 3.24 to 6.48 mM) | 600 to 1200 µg/mL (≈ 3.24 to 6.48 mM) | 600 to 1200 µg/mL (≈ 3.24 to 6.48 mM) | 300 to 600 µg/mL (≈ 1.62 to 3.24 mM) | 37.5 to 75 µg/mL (≈ 0.202 to 0.405 mM) | 18.8 to 37.5 µg/mL (≈ 0.102 to 0.202 mM) | 75 to 150 µg/mL (≈ 0.405 to 0.81 mM) | 75 to 150 µg/mL (≈ 0.405 to 0.81 mM) | 150 µg/mL (≈ 0.81 mM) | 150 to 200 µg/mL (≈ 0.81 to 1.08 mM) | MIC (fungi): 37.5 to 600 µg/mL (≈ 0.202 to 3.24 mM); MIC (gram negative bacteria): 600 to 2400 µg/mL (≈ 3.24 to 13 mM); MIC (gram positive bacteria): 600 to 1200 µg/mL (≈ 3.24 to 6.48 mM); MIC (yeasts): 300 to 1200 µg/mL (≈ 1.62 to 6.48 mM); LD50 at 24 h ([1]; ♀ rats): 860 mg/kg; LD50 at 48 h ([1]; ♀ rats): 860 mg/kg; LD50 at 336 h ([1]; ♀ rats): 860 mg/kg; LD50 at 24 h ([1]; ♂ + ♀ rats): 1070 mg/kg; LD50 at 48 h ([1]; ♂ + ♀ rats): 1020 mg/kg; LD50 at 336 h ([1]; ♂ + ♀ rats): 1020 mg/kg; LD50 at 24 h ([1]; ♂ rats): 1380 mg/kg; LD50 at 48 h ([1]; ♂ rats): 1220 mg/kg; LD50 at 336 h ([1]; ♂ rats): 1220 mg/kg; oral toxicity ([1]; result in words): low oral toxicity; bacteriostatic activity [2]: remarkable bacteriostatic activity; effect in combination (certain bacteria): synergistic effect |
| COC1=NS(=O)(=O)c2ccccc21 [3-methoxy-1,2-benzisothiazole-1,1-dioxide, reference compound] | > 1200 µg/mL | 1200 µg/mL (≈ 6.08 mM) | 600 to 1200 µg/mL (≈ 3.04 to 6.08 mM) | > 1200 µg/mL | > 1200 µg/mL | > 1200 µg/mL | > 1200 µg/mL | > 1200 µg/mL | 600 to 1200 µg/mL (≈ 3.04 to 6.08 mM) | > 1200 µg/mL | > 1200 µg/mL | 600 to 1200 µg/mL (≈ 3.04 to 6.08 mM) | > 1200 µg/mL |  |
